Assay results taken from patent US20080262068A1, “Method of Tonic Treatment With Oxyphenbutazone Derivatives” (A-Viral ASA, priority 2004, published 2008).
Read-outs that look alike come from different tables or passages of the source. Values belong to the molecule of their own block, whether it stands above or below them.

Key:
[1] = test system: anti-CD3/anti-CD28 induced GM-CSF production; experiment: anti-CD3/anti-CD28 induced GM-CSF production by PBMC (ELISA); assay type: cell-based, human; details: for IC50: 3 days anti-CD3/anti-CD28 stimulation, mean ± SD of at least 3 donors, 0.15-40 μM tested, read-out: IC50 aCD3/aCD28 stimulation (GM-CSF production); for concentration inhibiting GM-CSF production (total inhibition): concentration series up to 40 μM
Method: (§1) The medium used throughout this Example was Iscoves modified Dulbecco's medium (IMDM, Bio Whittaker, Verviers, Belgium) containing 100 U/ml penicillin, […] streptomycin (Gibco, Merelbeke, Belgium), 50 μM 2-mercaptoethanol (Sigma-Aldrich, Steinheim, Germany), 5% heat-inactivated fetal calf serum (FCS, Bodinco, Alkmaar, the Netherlands) and 20 mg/ml human transferrin (Sigma-Aldrich).
(§2) PBMC (peripheral blood mononuclear cells) were isolated from freshly drawn blood of a healthy donor and separated over a Percoll gradient (d=1.078, Pharmacia Fine Chemicals AB, Uppsala, Sweden). These isolated PBMC were cultured in 200 μl IMDM (2×10^5 cells/ml) at 37° C. in the presence of 5% CO2 in flat bottom plates (Nunc, Roskilde, Denmark). A combination of 1 μg/ml anti-CD3 and anti-CD28 (CLB.T3/4.E res. CLB.CD28/1, CLB, Amsterdam, The Netherlands) was used for T lymphocyte stimulation. For monocyte stimulation 100 pg/ml lipo-oligosaccharide (LOS, kind gift of Dr. J. Poolman, RIVM, Bilthoven, The Netherlands) was used.
(§3) Cytokine production of T lymphocytes was measured 3 days after anti CD3/anti CD28 stimulation. 1 day after LOS stimulation of the monocytes, cytokine production was measured. At the indicated times, supernatant was harvested and stored at −20° C. until used. IL-1b, IL-6, IL-8, IL-10, IL-12, IL-13, TNFa and IFNg were detected with ELISA kits (PeliKine-compact, CLB, Amsterdam, The Netherlands) according to the protocol. Summarized briefly, mAbs were coated on flat bottom microtitre plates (Nunc, Maxisorb) overnight in 100 μl 0.1 M sodiumbicarbonate at pH 9.6. All incubations were performed in 100 μl at room temperature. Plates were washed 5 times with PBS+0.02% Tween (Mallinckrodt Baker, Deventer, The Netherlands). Samples were incubated together with a biotinylated mAb for 2 hours in High Performance ELISA-buffer (CLB). Plates were washed 5 times with PBS+0.02% Tween and incubated with streptavidin-labeled poly-horseradish peroxidase (CLB) 1:1000 diluted in PBS+2% skimmed milk for 30 minutes. After 5 wash steps the plates were developed with TMB-substrate containing 0.003% H2O2, […] 3,5,3′,5′-tetramethylbenzidine (Merck, Darmstadt, Germany) in 0.11 M sodium acetate, pH 5.5. The reaction was stopped with an equal volume of 2 M H2SO4. The plates were measured in an ELISA-reader at 450 nm, using 540 nm for background measurements. GM-CSF was measured using a protocol similar to that used for the other cytokines. The GM-CSF Abs were a kind gift from Dr. G. Trinchieri (the Wistar Institute, Philadelphia, Pa., USA) In this assay the coating Ab was anti-GM-CSF 9.1 (used at 2 μg/ml), the biotinylated Ab was anti-GM-CSF 16.3 (0.1 μg/ml). rGM-CSF (Sandoz, Basel, Switzerland) and HGF 22.10 (CLB) were used for preparation of a standard curve.
IC50 values (the concentration of the compound needed to inhibit 50% of the maximum response) were determined by using 2-fold titration curves of the compound. The minimum concentration tested was 0.15 μM and the maximum concentration was 40 μM. […] IL-6 in the culture supernatant was determined after 24 h of LOS stimulation of the PBMC by ELISA. GM-CSF in the culture supernatant was determined after 3 days of anti-CD3/anti-CD28 stimulation of the PBMC by ELISA

[2] = test system: LOS induced IL-6 production; experiment: LOS induced IL-6 production by PBMC (ELISA); assay type: cell-based, human; details: for IC50: 24 h LOS stimulation, mean ± SD of at least 3 donors, 0.15-40 μM tested
Method: as §1, with “(Sigma-Aldrich). All used compounds are endotoxin free.” for “(Sigma-Aldrich).”
as §2, §3
IC50 values (the concentration of the compound needed to inhibit 50% of the maximum response) were determined by using 2-fold titration curves of the compound. The minimum concentration tested was 0.15 μM and the maximum concentration was 40 μM. Results represent the mean ±standard deviation of at least 3 donors. IL-6 in the culture supernatant was determined after 24 h of LOS stimulation of the PBMC by ELISA. GM-CSF in the culture supernatant was determined after 3 days of anti-CD3/anti-CD28 stimulation of the PBMC by ELISA

[3] = Human volunteers given 4-OH-OPB orally before LPS infusion: tolerability; assay type: in vivo; details: 200 mg orally, 2 hours before LPS 4 ng/kg i.v.
Method: Eight of the volunteers received 4-OH-OPB 200 mg orally as two tablets of 100 mg and eight were given placebo tablets. Placebo tablets were chemically identical with the exception of the presence of 4-OH-OPB. The study drug and placebo were administered 2 hours prior to infusion of […] coli lipopolysaccharide, lot G1, United States Pharmacopeial Convention, Rockville, Md.) was administered as a bolus intravenous injection at a dose of 4 ng/kg body weight. Blood was drawn directly prior to the administration of 4-OH-OPB, directly prior to injection of LPS and 0.5, 1, 1.5, 2, 3, 4, 5, 6, 8, 10 and 23 hours thereafter for plasma levels of 4-OH-OPB and/or metabolites. Blood was collected in heparinized tubes which were centrifuged at 3000 r.p.m. for 10 minutes at 4° C., after which 2 ml plasma was transferred in acid containing tubes. Blood for ex vivo production of cytokines in whole blood and mononuclear cell (MNC) cultures was taken directly prior to the administration of 4-OH-OPB and directly prior to the injection of LPS (t=-2 hrs and t=0 hrs). Heparinized whole blood or MNCs were incubated with medium, LOS or anti-CD3/CD28. […] Concentrations of TNF-α, IL-6, IL-8, IL-10 were determined in EDTA-anticoagulated plasma by Cytometric Bead Array (Human BD Cytometric Bead Array Kit, BD Biosciences Pharmingen, San Jose, Calif.).

[4] = test system: monokine production by monocytes; experiment: Effect on other monokines produced by stimulated monocytes; assay type: cell-based, human
Method: as §2
(§4) Cytokine production of T lymphocytes was measured 3 days after anti CD3/anti CD28 stimulation. 1 day after LOS stimulation of the monocytes, cytokine production was measured. At the indicated times, supernatant was harvested and stored at −20° C. until used. IL-1b, IL-6, IL-8, IL-10, IL-12, IL-13, TNFa and IFNg were detected with ELISA kits (PeliKine-compact, CLB, Amsterdam, The Netherlands) according to the protocol. Summarized briefly, mAbs were coated on flat bottom microtitre plates (Nunc, Maxisorb) overnight in 100 μl 0.1 M sodiumbicarbonate at pH 9.6. […] The plates were measured in an ELISA-reader at 450 nm, using 540 nm for background measurements. GM-CSF was measured using a protocol similar to that used for the other cytokines. […]

[5] = test system: Th1 and Th2 specific cytokine production; experiment: Effect on lymphocyte specific cytokines (Th1 and Th2); assay type: cell-based, human
Method: as §2, §4

[6] = Stability of ring-opened product in aqueous solution; assay type: physicochemical
Source text: The product of Example 4 (PHBPQ, N-phenyl-2-hydroxy-2 butyl-1,3-propanal quinoneimine) was examined for stability in aqueous solution, followed by analysis by ^1H NMR spectroscopy.

[7] = LOS induced IL-6 production, PBMC

Molecule: O=C1N(c2ccccc2)N(c2ccc(O)cc2)C(=O)C1(O)CCS(=O)(=O)c1ccccc1 (stereo not shown) [4-OH-OPS, 4-ethylsuphonphenyl-4-hydroxy-1-phenyl-2-hydroxyphenyl-3,5-pyrazoladinedione]
IC50 [1]: 30 ± 10 µM | concentration inhibiting GM-CSF production (total inhibition) ([1]; three days incubation): around 40 μM | concentration needed to inhibit IL-6 production compared to 4-OH-OPB [2, 7]: higher concentration | IC50 ([2]; PBMC): 13 ± 4 µM

Molecule: N-phenyl-2-hydroxy-2-butyl-1,3-propanal quinoneimine [PHBPQ]
re-conversion into 4-OH-OPB when the solution was acidified ([6]; acidified solution): not re-converted into 4-OH—OPB | half-life ([6]; aqueous solution, pH 7.4): 2 to 2.5 h | stability compared with 4-OH-OPB ([6]; pH 7.4): more stable

Further lines, with some results ahead:

IC50 ([1]; Homo sapiens, 72 h): 0.8 ± 0.5 µM | IC50 ([2]; Homo sapiens, PBMC): 0.6 ± 0.6 µM
Molecule: CCCCC1(O)C(=O)N(c2ccccc2)N(c2ccc(O)cc2)C1=O (stereo not shown) [4-OH-OPB, 4-Hydroxy-oxyphenbutazone]
concentration inhibiting GM-CSF production (total inhibition) ([1]; three days incubation): 1.25 µM | cytokine inhibitory activity (IL-6 and GM-CSF production by PBMC in vitro) ([2]; IL-6 and GM-CSF production by PBMC in vitro): best inhibitor | factor by which the IL-6 inhibiting concentration is lower than that for GM-CSF [2, 7]: 2 | adverse events attributable to the compound [3]: No adverse events | complaints of epigastric pain [3]: no complaints of epigastric pain | inhibition of LOS-induced monokines compared with IL-6 ([4]; LOS-induced, monocytes): inhibited identically | inhibition of SAC induced monokine production ([4]; SAC (heat killed staphylococcus aureus cells) stimulus): also inhibited | inhibition of cytokine production induced by other stimuli ([5]; PMA/ionomycin, PMA/anti-CD28 or anti-CD2/anti-CD28 antibodies): inhibited at similar concentration | effect on production of lymphocyte specific cytokines (Th1 and Th2) ([5]; anti-CD3/anti-CD28 stimulation): identical to the inhibition found for GM-CSF

IC50 ([1]; Homo sapiens, 72 h): 25 ± 7 µM | IC50 ([2]; Homo sapiens, PBMC): 13 ± 12 µM
Molecule: CCCCC1C(=O)N(c2ccccc2)N(c2ccc(O)cc2)C1=O (stereo not shown) [OPB, oxyphenbutazone]
concentration inhibiting GM-CSF production (total inhibition) ([1]; three days incubation): around 40 μM | concentration needed to inhibit IL-6 production compared to 4-OH-OPB [2, 7]: higher concentration

IC50 ([1]; Homo sapiens, 72 h): 30 ± 10 µM | IC50 ([2]; Homo sapiens, PBMC): > 40 µM
Molecule: CCCCC1C(=O)N(c2ccccc2)N(c2ccccc2)C1=O [PB, phenbutazone]
shape of dose-response curve for GM-CSF inhibition ([1]; three days incubation, up to 40 μM): shallow dose-response curve
